Bridge positions count the residues as written; N and C are the ends. Square brackets hold non-standard residues; d marks the D form. Peptide text beside a SMILES is read from it. * marks the point of attachment. Melibiouronoyl(1β-O-dodecyl) = CCCCCCCCCCCCO[C@@H]1O[C@H](CO[C@H]2O[C@H](C(=O)*)[C@H](O)[C@H](O)[C@H]2O)[C@@H](O)[C@H](O)[C@H]1O; X2 = CCCCCCCCCCCCCCO[C@@H]1O[C@H](CO[C@H]2O[C@H](C(=O)*)[C@H](O)[C@H](O)[C@H]2O)[C@@H](O)[C@H](O)[C@H]1O; Aib = CC(C)(N)C(=O)O

One experiment concerns the target T1, human GLP-1 receptor (Homo sapiens, UniProt P43220).
T1 construct: host or cells: CHO cells
In words: DiscoveRx LeadHunter cellular assay, cAMP stimulation, GLP-1 receptor in CHO cells. Type of experiment: cell-based. The conditions noted are these: human GLP-1 receptor in CHO cells (DiscoveRx); read-out: EC50 cAMP GLP-1 R.

Another experiment has as its target T2, human glucagon receptor (Homo sapiens, UniProt P47871).
T2 construct: host or cells: CHO cells
The experiment can be described thus: DiscoveRx LeadHunter cellular assay, cAMP stimulation, glucagon receptor in CHO cells. The format is cell-based.

T1 sequence (P43220 24-463): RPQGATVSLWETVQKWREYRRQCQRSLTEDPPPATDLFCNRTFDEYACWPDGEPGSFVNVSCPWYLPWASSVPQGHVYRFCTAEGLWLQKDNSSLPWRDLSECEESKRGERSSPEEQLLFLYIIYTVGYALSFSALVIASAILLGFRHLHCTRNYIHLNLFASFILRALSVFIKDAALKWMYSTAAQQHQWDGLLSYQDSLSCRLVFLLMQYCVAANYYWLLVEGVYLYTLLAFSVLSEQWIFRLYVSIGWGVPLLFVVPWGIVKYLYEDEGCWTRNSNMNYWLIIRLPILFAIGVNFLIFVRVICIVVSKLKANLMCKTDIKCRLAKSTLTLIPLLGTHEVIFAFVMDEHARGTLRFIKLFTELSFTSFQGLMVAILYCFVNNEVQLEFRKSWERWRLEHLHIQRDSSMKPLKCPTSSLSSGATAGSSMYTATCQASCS
T2 sequence (P47871 26-477): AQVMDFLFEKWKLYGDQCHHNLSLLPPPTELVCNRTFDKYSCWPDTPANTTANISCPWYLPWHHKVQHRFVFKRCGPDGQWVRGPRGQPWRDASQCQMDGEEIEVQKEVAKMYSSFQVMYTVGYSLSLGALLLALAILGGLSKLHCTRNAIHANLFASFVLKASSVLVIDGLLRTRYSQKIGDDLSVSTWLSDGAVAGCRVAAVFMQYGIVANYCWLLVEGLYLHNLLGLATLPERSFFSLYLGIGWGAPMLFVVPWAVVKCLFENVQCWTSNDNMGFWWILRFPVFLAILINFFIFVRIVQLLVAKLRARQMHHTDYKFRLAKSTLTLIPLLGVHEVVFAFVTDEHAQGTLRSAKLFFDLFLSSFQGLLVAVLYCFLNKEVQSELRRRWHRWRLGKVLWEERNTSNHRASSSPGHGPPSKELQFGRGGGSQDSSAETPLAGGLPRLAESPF
Protocol for human GLP-1 receptor: (§1) A further series of cellular assays was carried out with standard cellular assays (DiscoveRx, LeadHunter assays) using readout of cAMP stimulation or arrestin activation. Compounds were weighed precisely in an amount of about 1 mg and shipped to DiscoveRx for dilution and assay.
Protocol for human glucagon receptor: as §1

Turning to `CCCCCCCCCCCCCCCCO[C@@H]1O[C@H](CO[C@H]2O[C@H](C(=O)NCCCC[C@H](NC(=O)[C@@H](NC(=O)[C@H](Cc3ccccc3)NC(=O)[C@H](CCC(=O)O)NC(=O)[C@@H]3CCCCNC(=O)CC[C@H](NC(=O)[C@H](CC(=O)O)NC(=O)[C@H](CC(C)C)NC(=O)[C@H](Cc4ccc(O)cc4)NC(=O)[C@H](CCCCN)NC(=O)[C@H](CO)NC(=O)[C@H](Cc4ccc(O)cc4)NC(=O)[C@H](CC(=O)O)NC(=O)[C@H](CO)NC(=O)[C@@H](NC(=O)[C@H](Cc4ccccc4)NC(=O)[C@@H](NC(=O)CNC(=O)[C@H](CCC(N)=O)NC(=O)C(C)(C)NC(=O)[C@@H](N)Cc4c[nH]cn4)[C@@H](C)O)[C@@H](C)O)C(=O)N[C@@H](CCC(N)=O)C(=O)N[C@@H](C)C(=O)N[C@@H](C)C(=O)N3)[C@@H](C)CC)C(=O)N[C@@H](Cc3c[nH]c4ccccc34)C(=O)N[C@@H](CC(C)C)C(=O)N[C@@H](CC(C)C)C(=O)N[C@@H](CCC(N)=O)C(=O)N[C@H](C(=O)O)[C@@H](C)O)[C@H](O)[C@H](O)[C@H]2O)[C@@H](O)[C@H](O)[C@H]1O` [EU-A1578], the EC50 is 0.008 nM on human GLP-1 receptor and 0.355 nM at human glucagon receptor.
The matching figures for `CCCCCCCCCCCCO[C@@H]1O[C@H](CO[C@H]2O[C@H](C(=O)NCCCC[C@H](NC(=O)[C@@H](NC(=O)[C@H](Cc3ccccc3)NC(=O)[C@H](CCC(=O)O)NC(=O)[C@@H]3CCCCNC(=O)CC[C@H](NC(=O)[C@H](CC(=O)O)NC(=O)[C@H](CC(C)C)NC(=O)[C@H](Cc4ccc(O)cc4)NC(=O)[C@H](CCCCN)NC(=O)[C@H](CO)NC(=O)[C@H](Cc4ccc(O)cc4)NC(=O)[C@H](CC(=O)O)NC(=O)[C@H](CO)NC(=O)[C@@H](NC(=O)[C@H](Cc4ccccc4)NC(=O)[C@@H](NC(=O)CNC(=O)[C@H](CCC(N)=O)NC(=O)C(C)(C)NC(=O)[C@@H](N)Cc4c[nH]cn4)[C@@H](C)O)[C@@H](C)O)C(=O)N[C@@H](CCC(=O)O)C(=O)N[C@@H](C)C(=O)N[C@@H](C)C(=O)N3)[C@@H](C)CC)C(=O)N[C@@H](Cc3c[nH]c4ccccc34)C(=O)N[C@@H](CC(C)C)C(=O)N[C@@H](CC(C)C)C(=O)N[C@@H](CCC(N)=O)C(=O)N[C@H](C(=O)O)[C@@H](C)O)[C@H](O)[C@H](O)[C@H]2O)[C@@H](O)[C@H](O)[C@H]1O` [EU-A1581] (H-H[Aib]QGTFTSDYSKYLDEEAAKEFIK(Melibiouronoyl(1β-O-dodecyl))WLLQT-OH; lactam 16-20; N-terminus assumed): 0.086 nM and 1.03 nM.
With `CCCCCCCCCCCCO[C@@H]1O[C@H](CO[C@H]2O[C@H](C(=O)NCCCC[C@@H]3NC(=O)[C@@H](NC(=O)[C@H](CC(=O)O)NC(=O)[C@H](CC(C)C)NC(=O)[C@H](Cc4ccc(O)cc4)NC(=O)[C@H](CCCCN)NC(=O)[C@H](CO)NC(=O)[C@H](Cc4ccc(O)cc4)NC(=O)[C@H](CC(=O)O)NC(=O)[C@H](CO)NC(=O)[C@@H](NC(=O)[C@H](Cc4ccccc4)NC(=O)[C@@H](NC(=O)CNC(=O)[C@H](CCC(N)=O)NC(=O)C(C)(C)NC(=O)[C@@H](N)Cc4c[nH]cn4)[C@@H](C)O)[C@@H](C)O)CCC(=O)NCCCC[C@@H](C(=O)N[C@@H](CCC(=O)O)C(=O)N[C@@H](Cc4ccccc4)C(=O)N[C@H](C(=O)N[C@@H](CCC(N)=O)C(=O)N[C@@H](Cc4c[nH]c5ccccc45)C(=O)N[C@@H](CC(C)C)C(=O)N[C@@H](CC(C)C)C(=O)N[C@@H](CCC(N)=O)C(=O)N[C@H](C(N)=O)[C@@H](C)O)[C@@H](C)CC)NC(=O)[C@H](C)NC(=O)[C@H](C)NC3=O)[C@H](O)[C@H](O)[C@H]2O)[C@@H](O)[C@H](O)[C@H]1O` [EU-A1586], the EC50 at human GLP-1 receptor was 0.029 nM; at human glucagon receptor, 0.107 nM.
In the case of `CCCCCCCCCCCCO[C@@H]1O[C@H](CO[C@H]2O[C@H](C(=O)NCCCC[C@@H]3NC(=O)[C@@H](NC(=O)[C@H](CC(=O)O)NC(=O)[C@H](CC(C)C)NC(=O)[C@H](Cc4ccc(O)cc4)NC(=O)[C@H](CCCCN)NC(=O)[C@H](CO)NC(=O)[C@H](Cc4ccc(O)cc4)NC(=O)[C@H](CC(=O)O)NC(=O)[C@H](CO)NC(=O)[C@@H](NC(=O)[C@H](Cc4ccccc4)NC(=O)[C@@H](NC(=O)CNC(=O)[C@H](CCC(N)=O)NC(=O)C(C)(C)NC(=O)[C@@H](N)Cc4c[nH]cn4)[C@@H](C)O)[C@@H](C)O)CCC(=O)NCCCC[C@@H](C(=O)N[C@@H](CCC(=O)O)C(=O)N[C@@H](Cc4ccccc4)C(=O)N[C@H](C(=O)N[C@@H](CCC(N)=O)C(=O)N[C@@H](Cc4c[nH]c5ccccc45)C(=O)N[C@@H](CC(C)C)C(=O)N[C@@H](CC(C)C)C(=O)N[C@@H](CCC(N)=O)C(=O)N[C@H](C(=O)O)[C@@H](C)O)[C@@H](C)CC)NC(=O)[C@H](C)NC(=O)[C@H](C)NC3=O)[C@H](O)[C@H](O)[C@H]2O)[C@@H](O)[C@H](O)[C@H]1O` [EU-A1590], the values for the EC50 on human GLP-1 receptor and at human glucagon receptor were 0.094 nM and 0.343 nM, respectively.
As for `CCCCCCCCCCCCO[C@@H]1O[C@H](CO[C@H]2O[C@H](C(=O)NCCCC[C@@H]3NC(=O)[C@@H](NC(=O)[C@H](CC(=O)O)NC(=O)[C@H](CC(C)C)NC(=O)[C@H](Cc4ccc(O)cc4)NC(=O)[C@H](CCCCN)NC(=O)[C@H](CO)NC(=O)[C@H](Cc4ccc(O)cc4)NC(=O)[C@H](CC(=O)O)NC(=O)[C@H](CO)NC(=O)[C@@H](NC(=O)[C@H](Cc4ccccc4)NC(=O)[C@@H](NC(=O)CNC(=O)[C@H](CCC(N)=O)NC(=O)C(C)(C)NC(=O)[C@@H](N)Cc4c[nH]cn4)[C@@H](C)O)[C@@H](C)O)CCC(=O)NCCCC[C@@H](C(=O)N[C@@H](CCC(=O)O)C(=O)N[C@@H](Cc4ccccc4)C(=O)N[C@H](C(=O)N[C@@H](CCC(=O)O)C(=O)N[C@@H](Cc4c[nH]c5ccccc45)C(=O)N[C@@H](CC(C)C)C(=O)N[C@@H](CC(C)C)C(=O)N[C@@H](CCC(N)=O)C(=O)N[C@H](C(N)=O)[C@@H](C)O)[C@@H](C)CC)NC(=O)[C@H](C)NC(=O)[C@H](C)NC3=O)[C@H](O)[C@H](O)[C@H]2O)[C@@H](O)[C@H](O)[C@H]1O` [EU-A1591] (H-H[Aib]QGTFTSDYSKYLDEK(Melibiouronoyl(1β-O-dodecyl))AAKEFIEWLLQT-NH2; lactam 16-20; N-terminus assumed), the EC50 worked out at 0.073 nM at human GLP-1 receptor and 0.286 nM at human glucagon receptor.
In the case of `CCCCCCCCCCCCO[C@@H]1O[C@H](CO[C@H]2O[C@H](C(=O)NCCCC[C@@H]3NC(=O)[C@@H](NC(=O)[C@H](CC(=O)O)NC(=O)[C@H](CC(C)C)NC(=O)[C@H](Cc4ccc(O)cc4)NC(=O)[C@H](CCCCN)NC(=O)[C@H](CO)NC(=O)[C@H](Cc4ccc(O)cc4)NC(=O)[C@H](CC(=O)O)NC(=O)[C@H](CO)NC(=O)[C@@H](NC(=O)[C@H](Cc4ccccc4)NC(=O)[C@@H](NC(=O)CNC(=O)[C@H](CCC(N)=O)NC(=O)C(C)(C)NC(=O)[C@@H](N)Cc4c[nH]cn4)[C@@H](C)O)[C@@H](C)O)CCC(=O)NCCCC[C@@H](C(=O)N[C@@H](CCC(=O)O)C(=O)N[C@@H](Cc4ccccc4)C(=O)N[C@H](C(=O)N[C@@H](CCC(=O)O)C(=O)N[C@@H](Cc4c[nH]c5ccccc45)C(=O)N[C@@H](CC(C)C)C(=O)N[C@@H](CC(C)C)C(=O)N[C@@H](CCC(N)=O)C(=O)N[C@H](C(=O)O)[C@@H](C)O)[C@@H](C)CC)NC(=O)[C@H](C)NC(=O)[C@H](C)NC3=O)[C@H](O)[C@H](O)[C@H]2O)[C@@H](O)[C@H](O)[C@H]1O` [EU-A1592] (H-H[Aib]QGTFTSDYSKYLDEK(Melibiouronoyl(1β-O-dodecyl))AAKEFIEWLLQT-OH; lactam 16-20; N-terminus assumed), the EC50 on human GLP-1 receptor amounted to 0.25 nM; on human glucagon receptor it was 0.78 nM.
The like results for `CCCCCCCCCCCCO[C@@H]1O[C@H](CO[C@H]2O[C@H](C(=O)NCCCC[C@H](NC(=O)[C@H](CC(=O)O)NC(=O)[C@H](CO)NC(=O)[C@@H](NC(=O)[C@H](Cc3ccccc3)NC(=O)[C@@H](NC(=O)CNC(=O)[C@H](CCC(N)=O)NC(=O)C(C)(C)NC(=O)[C@@H](N)Cc3c[nH]cn3)[C@@H](C)O)[C@@H](C)O)C(=O)N[C@@H](CO)C(=O)N[C@@H](CCCCN)C(=O)N[C@@H](Cc3ccc(O)cc3)C(=O)N[C@@H](CC(C)C)C(=O)N[C@@H](CC(=O)O)C(=O)N[C@H]3CCC(=O)NCCCC[C@@H](C(=O)N[C@@H](CCC(=O)O)C(=O)N[C@@H](Cc4ccccc4)C(=O)N[C@H](C(=O)N[C@@H](CCC(N)=O)C(=O)N[C@@H](Cc4c[nH]c5ccccc45)C(=O)N[C@@H](CC(C)C)C(=O)N[C@@H](CC(C)C)C(=O)N[C@@H](CCC(N)=O)C(=O)N[C@H](C(N)=O)[C@@H](C)O)[C@@H](C)CC)NC(=O)[C@H](C)NC(=O)[C@H](C)NC(=O)[C@H](CCC(N)=O)NC3=O)[C@H](O)[C@H](O)[C@H]2O)[C@@H](O)[C@H](O)[C@H]1O` [EU-A1594] (H-H[Aib]QGTFTSDK(Melibiouronoyl(1β-O-dodecyl))SKYLDEQAAKEFIQWLLQT-NH2; lactam 16-20) were, in that order, 0.011 nM and 0.068 nM.
The like results for `CCCCCCCCCCCCCCO[C@@H]1O[C@H](CO[C@H]2O[C@H](C(=O)NCCCC[C@H](NC(=O)[C@H](CC(=O)O)NC(=O)[C@H](CO)NC(=O)[C@@H](NC(=O)[C@H](Cc3ccccc3)NC(=O)[C@@H](NC(=O)CNC(=O)[C@H](CCC(N)=O)NC(=O)C(C)(C)NC(=O)[C@@H](N)Cc3c[nH]cn3)[C@@H](C)O)[C@@H](C)O)C(=O)N[C@@H](CO)C(=O)N[C@@H](CCCCN)C(=O)N[C@@H](Cc3ccc(O)cc3)C(=O)N[C@@H](CC(C)C)C(=O)N[C@@H](CC(=O)O)C(=O)N[C@H]3CCC(=O)NCCCC[C@@H](C(=O)N[C@@H](CCC(=O)O)C(=O)N[C@@H](Cc4ccccc4)C(=O)N[C@H](C(=O)N[C@@H](CCC(N)=O)C(=O)N[C@@H](Cc4c[nH]c5ccccc45)C(=O)N[C@@H](CC(C)C)C(=O)N[C@@H](CC(C)C)C(=O)N[C@@H](CCC(N)=O)C(=O)N[C@H](C(N)=O)[C@@H](C)O)[C@@H](C)CC)NC(=O)[C@H](C)NC(=O)[C@H](C)NC(=O)[C@H](CCC(N)=O)NC3=O)[C@H](O)[C@H](O)[C@H]2O)[C@@H](O)[C@H](O)[C@H]1O` [EU-A1595] (H-H[Aib]QGTFTSDK(X2)SKYLDEQAAKEFIQWLLQT-NH2; lactam 16-20; N-terminus assumed) were, in that order, 0.021 nM and 0.113 nM.

Values taken from patent US11541028B2, “Peptide pharmaceuticals for treatment of NASH and other disorders” (Mederis Diabetes LLC, priority 2018, dated 2023).
